Experimental data reported in US20050165000A1, “Pharmaceutical compositions containing an hiv integrase inhibitor and a nonionic surfactant” (priority 2002, published 2005).

Legend:
[1] = oral bioavailability when administered to animals; type: in vivo
Method: (§1) Since the physiological pH typically lies within this range, the rate of the drug's dissolution in and absorption from the gastrointestinal tract can be low, particularly when the drug is administered in a solid dosage form. The same or similar formulation difficulties can be expected for other 8-hydroxy-1,6-naphthyridine-7-carboxamides of this class and their salts having low solubility at physiological pH's.
Particle size can affect the oral bioavailability of the active drug substances employed in the pharmaceutical compositions of the invention. […] Accordingly, embodiments of the present invention include each of the pharmaceutical compositions defined and described above, wherein the active drug substance (i.e., Compound I or II or A or B or a pharmaceutically acceptable salt thereof) employed therein has a mean particle size of from about 1 to about 20 μm, or from about 1 to about 10 μm (e.g., from about 3 to about 6 μm wherein 90% of the particles are less than 10 μm).

[2] = in vitro dispersion of Compound A in aqueous surfactant solutions; type: physicochemical; settings: aqueous media at physiological pHs, in the absence of a nonionic surfactant or in the presence of SLS; Na salt milled to 3 μm
Excerpt: This PK data is consistent with the results of in vitro experiments characterizing the ability of these surfactants to disperse Compound A. In these experiments, Compound A Na salt (milled to a 3 μm mean particle size) was suspended in acidified aqueous solutions of the surfactant, and the surfactants were ranked for effectiveness in dispersing Compound A based on a visual evaluation of the suspension for turbidity and particle size. The visual evaluations were confirmed by measuring the particle size distributions in the suspensions using a laser scattering particle size distribution analyzer. The results of these tests have shown that Compound A drug particles flocculate in aqueous media at physiological pHs in the absence of a nonionic surfactant or in the presence of SLS.

[3] = wettability and water solubility; type: physicochemical
Method: as §1

HIV replication = assay: inhibition of acute HIV infection of T-lymphoid cells; type: cell-based
Excerpt: The active drug substances employed in the pharmaceutical compositions of the present invention (e.g., the 8-hydroxy-1,6-naphthyridine-7-carboxamide compounds of Formula (I) and (II) and Compounds A and B) are inhibitors of HIV integrase. […] Integrase inhibition activity can be determined, for example, using the assay described in Hazuda et al., J. Virol. 1997, 71: 7005-7011. […] Further description of representative compound embraced by Formula I, assays for measuring their integrase inhibition activity and HIV replication activity can be found in WO 02/30930.

HIV integrase = target: T1, HIV integrase (Human immunodeficiency virus type 1 group M subtype B, UniProt P04585); assay: integrase inhibition assay, strand transfer catalyzed by recombinant integrase; type: biochemical
T1 construct: strand transfer is catalyzed by recombinant integrase
Excerpt: Integrase inhibition activity can be determined, for example, using the assay described in Hazuda et al., J. Virol. 1997, 71: 7005-7011.

[4] = animals, aqueous suspensions containing 0.5 wt. % methocel and 0.02 wt. % sodium lauryl sulfate

## O=C(NCc1ccc(F)cc1)c1nc(N2CCCCS2(=O)=O)c2cccnc2c1[O-].[Na+] [Compound A sodium salt, 5-(N-1,4-butanesultam)-N-(4-fluorobenzyl)-8-hydroxy-1,6-naphthyridine-7-carboxamide sodium salt]
[1]; [4]
  oral bioavailability: satisfactory oral bioavailability
[1]; animals, wet granulated compressed tablets with lactose, hydroxypropylcellulose, Na croscarmellose, microcrystalline cellulose, Mg stearate (no surfactant)
  oral bioavailability: poor oral bioavailability
[1]; capsules containing bulk Compound A sodium salt, versus the suspension
  oral bioavailability: substantially lower oral bioavailability

## O=C(NCc1ccc(F)cc1)c1nc(N2CCCCS2(=O)=O)c2cccnc2c1O [Compound A, 5-(1,1-dioxido-1,2-thiazinan-2-yl)-N-(4-fluorobenzyl)-8-hydroxy-1,6-naphthyridine-7-carboxamide]
[2]
  dispersion of drug particles (turbidity, particle size): flocculate
[3]
  wettability: poor wettability
[3]; pH's between about 2 and about 8
  water solubility: low water solubility
HIV replication
  inhibition of HIV replication: very effective
HIV integrase
  HIV integrase inhibition in the strand transfer assay: potent HIV integrase inhibitors
[1]; [4]
  oral bioavailability: satisfactory oral bioavailability

## CNC(=O)c1cc(F)ccc1CNC(=O)c1nc(N2CCCCS2(=O)=O)c2cccnc2c1O [Compound B, N-{4-fluoro-2-[(methylamino)carbonyl]benzyl}-5-(1,1-dioxido-1,2-thiazinan-2-yl)-8-hydroxy-1,6-naphthyridine-7-carboxamide]
HIV replication
  inhibition of HIV replication: very effective
HIV integrase
  HIV integrase inhibition in the strand transfer assay: potent HIV integrase inhibitors
